One experiment addresses T1, Vtc4p (Saccharomyces cerevisiae, UniProt P47075).
T1 construct: gene VTC4; probably the cytoplasmic tunnel domain of earlier work
Briefly: polyP synthesis, urea PAGE with DAPI stain. The format is biochemical. To be noted: 10 mM ATP, 1 mM MnCl2, pH 8.3, room temperature overnight.

The target of experiment [1] is T2, mouse ThTPase (Mus musculus, UniProt Q8JZL3).
T2 construct: gene Thtpa; full-length, codon-optimized synthetic gene; pMH-HT, His6 tag cleaved by TEV as for AtTTM3; expressed in E. coli
T2 sequence (Q8JZL3 1-224): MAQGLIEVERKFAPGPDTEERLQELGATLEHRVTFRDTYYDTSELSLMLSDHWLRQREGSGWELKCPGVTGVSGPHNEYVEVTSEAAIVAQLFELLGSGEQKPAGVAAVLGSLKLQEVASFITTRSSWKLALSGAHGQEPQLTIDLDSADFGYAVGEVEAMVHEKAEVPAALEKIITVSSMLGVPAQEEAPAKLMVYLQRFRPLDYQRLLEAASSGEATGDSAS
Put plainly: X-ray crystal structure of product complex (soak). In kind it is binding. To be noted: pH 9.0, 0.2 M MgCl2 in crystallization buffer.

Experiment [2] concerns the target T2, mouse ThTPase. Put plainly: X-ray crystal structure of complex (soak). In kind it is binding. To be noted: 10 mM MgCl2; low pH where activity is minimal (text: pH 6; methods: buffer pH 6.8); tunnel active site.
In a further experiment the target is T3, ygiF (Escherichia coli, UniProt P30871).
T3 construct: full-length, tunnel domain plus CHAD domain; pMH-HT, His6 tag cleaved by TEV as for AtTTM3; expressed in E. coli
Briefly: X-ray crystal structure of complex (soak). In kind it is binding. To be noted: MgCl2 (5a60) or MnCl2 (5a61), 5 mM; tunnel active site.

T1 sequence (P47075 189-480 limits assumed): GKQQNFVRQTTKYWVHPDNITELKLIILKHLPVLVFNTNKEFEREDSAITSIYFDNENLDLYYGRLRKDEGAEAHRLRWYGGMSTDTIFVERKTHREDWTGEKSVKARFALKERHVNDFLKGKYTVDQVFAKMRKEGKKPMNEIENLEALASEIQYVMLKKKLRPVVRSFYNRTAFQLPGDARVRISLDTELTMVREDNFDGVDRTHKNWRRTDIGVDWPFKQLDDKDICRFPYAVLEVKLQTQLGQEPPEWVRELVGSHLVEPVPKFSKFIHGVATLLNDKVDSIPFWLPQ
T3 sequence (P30871 whole entry, the tested form may be a part): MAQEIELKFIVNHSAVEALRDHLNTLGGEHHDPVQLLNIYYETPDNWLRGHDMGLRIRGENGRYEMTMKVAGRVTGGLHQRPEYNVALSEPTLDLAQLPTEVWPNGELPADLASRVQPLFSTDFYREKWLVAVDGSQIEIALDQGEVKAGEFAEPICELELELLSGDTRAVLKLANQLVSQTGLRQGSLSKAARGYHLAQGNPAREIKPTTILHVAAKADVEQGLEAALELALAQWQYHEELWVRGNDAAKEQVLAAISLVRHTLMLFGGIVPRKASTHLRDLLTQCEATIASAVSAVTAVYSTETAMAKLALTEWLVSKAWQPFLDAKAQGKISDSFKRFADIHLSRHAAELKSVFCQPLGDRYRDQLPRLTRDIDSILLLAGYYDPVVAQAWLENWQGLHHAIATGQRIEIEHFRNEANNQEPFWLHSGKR

For the molecule `Nc1ncnc2c1ncn2[C@@H]1O[C@H](COP(=O)(O)OP(=O)(O)OP(=O)(O)O)[C@@H](O)[C@H]1O` [ATP], the “polyP synthesis, urea PAGE with DAPI stain” value at Vtc4p was “only Vtc4p can generate inorganic polyphosphate from ATP”.
For `Cc1ncc(C[n+]2csc(CCOP(=O)(O)OP(=O)(O)O)c2C)c(N)n1` [ThDP], on mouse ThTPase [1] (tunnel active site, Pi also bound), the “X-ray crystal structure of product complex (soak)” value was “with a ThDP molecule and an orthophosphate located in the tunnel center”.
Turning to `Cc1ncc(C[n+]2csc(CCOP(=O)(O)OP(=O)(O)OP(=O)(O)O)c2C)c(N)n1` [thiamine triphosphate], the “X-ray crystal structure of complex (soak)” value at mouse ThTPase [2] was “we found an intact ThTP molecule bound in the tunnel center of ThTPase”.
Regarding `O=P(O)(O)O` [orthophosphate], at mouse ThTPase [1] (bound by Arg-125 near metal site 2, with ThDP), the “X-ray crystal structure of product complex (soak)” value is “with a ThDP molecule and an orthophosphate located in the tunnel center”.
On to `O=P(O)(O)OP(=O)(O)OP(=O)(O)O` [tripolyphosphate], for which the “X-ray crystal structure of complex (soak)” value on ygiF is “solved structures of ygiF in complex with PPPi and in the presence of either MgCl2”.

Source of the values: PMC4641920, “Structural Determinants for Substrate Binding and Catalysis in Triphosphate Tunnel Metalloenzymes” (The Journal of Biological Chemistry, 2015).
